Tests used:
[1] = test system: C6 glioma xenografts; test: Photodynamic treatment (PDT) of C6 glioma xenografts; format: in vivo, CD1 nude mice
Protocol: (vii) Tumor implantation. Cultured C6 glioma cell monolayers were scraped in saline, centrifuged at 250 g for 5 min, resuspended in saline and subcutaneously injected (2×10^6 cells/mouse) into the back of CD1 nude mice. Tumors reached a treatment diameter of 6-8 mm within 2 weeks. The mice were sacrificed (according to the guidelines of the Weizmann Institute of Science) when tumors reached the diameter of ≧15 mm.
(xi) PDT Protocol. CD1 nude mice bearing C6 glioma (n=17) were anesthetized and compound 5 (0.3 mg/kg) was injected via the tail vein. The tumor area was immediately illuminated (drug-to-light time interval (DLTI)=0) transcutaneously for 15 min by 755 nm diode laser (CeramOptec, Germany) with light dose of 80 mW/cm^2 (light field diameter—14 mm). Following illumination the mice (n=12) were placed back in the cage. Tumor response (using local necrosis at day 8 post-PDT as end point) was recorded photographically, and tumor volume was assessed (Gleave et al., 1992.) Response was considered as partial when only a part of the illuminated tumor became necrotic. Mice were considered cured if they were tumor free 90 days after treatment. Continued tumor growth following PDT was scored as no response. Mice were sacrificed when tumor diameter reached 15 mm. The following controls were used: (i) dark control (n=3)-tumor-bearing mice i.v. injected with sensitizer but not illuminated; (ii) light control (n=2)-tumor-bearing mice not injected with sensitizer but illuminated; (iii) untreated control (n=2)-tumor-bearing mice not injected with sensitizer and not illuminated.
Based on the pharmacokinetic data described in Example 20 above, the treatment protocol for compound 5 was set to 15-min illumination immediately after injection of the sensitizer, using a dedicated medical laser matched to the peak absorption of 5 (CeramOptec, Germany, 755 nm). In order to test the drug efficiency, CD1 male nude mice (n=12) were treated with a dose of 0.3 mg/kg compound 5 and light intensity of 80 mW/cm^2. […] FIGS. 6B-6C are photographs of the tumor site of a mice injected with compound 5 but not illuminated and of a mice injected with saline and illuminated, respectively.
FIG. 7 depicts a Kaplan-Meier survival curve showing 80% survival for mice treated with compound 5 and illuminated (treatment, squares).

[2] = test system: H5V mouse endothelial cells; test: Phototoxicity (cytophototoxicity) on endothelial cells, Neutral Red viability; format: cell-based; conditions: endothelial cell cultures, FIG. 3C
Protocol: (i) Cell culture. H5V mouse endothelial cells were cultured as monolayers in Dulbecco's modified Eagle's medium (DMEM)/F12 containing 25 mM HEPES, pH 7.4, 10% fetal calf serum (FCS), glutamine (2 mM), penicillin (0.06 mg/ml), and streptomycin (0.1 mg/ml) (hereinafter referred to as the “culture medium”). The cells were grown at 37° C. in an 8% CO2-humidified atmosphere.
(a) Cells. To determine the photodynamic efficacy, cells were cultured in 96-well plates (40×10^3/well) and incubated in the dark in culture medium containing increasing concentrations of sensitizers 5, 7, 9 and 11, for a period of 1 min to 8 h. Unbound sensitizer was removed by washing the cells once with fresh culture medium. The plates were illuminated at room temperature, from their bottom side, for 10 min (650<λ<800 nm, 12 J/cm^2). The light source was a 100 W Halogen lamp (Osram, Germany) equipped with a <650 nm cutoff and a 4-cm water filter. The cultures were placed in the culture incubator and cell survival was determined 24 h after illumination, by Neutral Red viability assay. Cell survival was calculated as the percent of the dye accumulated in the untreated controls. Triplicate determinations were conducted and representative experiments are shown. […]
The phototoxicity of compounds 5, 7, 9, and 11 on H5V mouse endothelial cells was determined as described in section (iv) (a) above. […]

[3] = test system: St. albus; test: Phototoxicity on Gram-positive bacteria, colony counting; format: cell-based
Protocol: (ii) Bacterial cultures. Bacteria of strains St. albus and E. coli XL-1 were cultured in liquid LB medium (E. coli in LB containing 12.5 μg tetracyclin/ml) to a final density of OD600 nm=0.5-0.9 (1 OD=8×10^8 bacteria/ml). The bacteria were spun down (4000×g, 5 min.) and resuspended in PBS.
(b) Bacterial. To determine the photodynamic efficacy, bacteria were diluted to aliquots of 300 μl containing about 10^7 bacteria, and incubated with increasing concentrations of sensitizer in plastic test tubes in the dark for 1 h at room temperature, and then illuminated at 70 mW/cm^2 for 15 min. Samples of the treated bacteria cultures were subsequently plated at different dilutions (50-200 bacteria/plate) on LB agar and cultured for 24 h at 37° C. for determination of bacterial survival by colony counting. Triplicate determinations were conducted and representative experiments are shown.
The phototoxicity of positively-charged compound 5 was tested on Gram-positive St. albus and Gram-negative E. coli bacteria in comparison to the negatively-charged Pd 3^1-oxo-15-methoxycarbonylmethyl-Rhodobacteriochlorin 13^1-(2-sulfoethyl)amide dipotassium salt (described in PCT/IL03/00973). Bacteria were incubated with increasing concentrations of the sensitizers for 1 h and illuminated or kept in the dark. […] Gram-positive bacteria St. albus, was 100 times more sensitive to compound 5 than Gram-negative E. coli. No phototoxicity was observed when bacteria were incubated and treated with the same sensitizers' concentration range without illumination (dark controls).

For “3^1-Oxo-15-methoxycarbonylmethyl-Rhodo-bacteriochlorin 13^1,17^3-di(2-N^3-trimethylammoniumethyl)amide dicitrate salt [Compound 5]”, the “survival (Kaplan-Meier survival curve)” value ([1]; 0.3 mg/kg i.v., illuminated 15 min, 755 nm, 80 mW/cm^2) was 80%, the “lower concentration causing tumor eradication than Pd-Bpheid or the negatively-charged 13^1-(2-sulfoethyl)amide dipotassium salt” value ([1]; C6 glioma xenografts in mice) was 10 fold and the “outcome at tumor site” value ([1]; PDT-treated mouse, by day 32) was “the wound healed and the animal was cured”. The tumor necrosis ([1]; PDT-treated mouse, day 14, 0.3 mg/kg, 80 mW/cm^2) was “tumor necrosis was observed”, the “local reaction after treatment” value ([1]; all animals of full treatment group, day 1 after treatment) was “developed inflammation and edema” and the “tumor necrosis, dark control” value ([1]; injected with compound but not illuminated) was “No necrosis of the tumor”. The “incubation time at which very high PDT efficiency is reached” value [2] was “less than 5 minutes”, the “sensitivity of St. albus relative to E. coli” value [3] was 100 times and the phototoxic killing concentration ([3]; 1 h incubation, illuminated 15 min at 70 mW/cm^2, read-out: Kd (phototoxicity)) was 20 nM.

Source: patent US8207154B2, “Catatonic bacteriochlorophyll derivatives” (Yeda Research and Development Co., Ltd., priority 2005, dated 2012)
